Assay [1] addresses Thymidylate synthase (Homo sapiens, UniProt P04818).
Assay [2] addresses Thymidylate synthase (Escherichia coli, UniProt C3SWJ7).
Assay [3] deals with T1, Bifunctional dihydrofolate reductase-thymidylate synthase (Toxoplasma gondii, UniProt Q07422).
T1 sequence (Q07422 whole entry): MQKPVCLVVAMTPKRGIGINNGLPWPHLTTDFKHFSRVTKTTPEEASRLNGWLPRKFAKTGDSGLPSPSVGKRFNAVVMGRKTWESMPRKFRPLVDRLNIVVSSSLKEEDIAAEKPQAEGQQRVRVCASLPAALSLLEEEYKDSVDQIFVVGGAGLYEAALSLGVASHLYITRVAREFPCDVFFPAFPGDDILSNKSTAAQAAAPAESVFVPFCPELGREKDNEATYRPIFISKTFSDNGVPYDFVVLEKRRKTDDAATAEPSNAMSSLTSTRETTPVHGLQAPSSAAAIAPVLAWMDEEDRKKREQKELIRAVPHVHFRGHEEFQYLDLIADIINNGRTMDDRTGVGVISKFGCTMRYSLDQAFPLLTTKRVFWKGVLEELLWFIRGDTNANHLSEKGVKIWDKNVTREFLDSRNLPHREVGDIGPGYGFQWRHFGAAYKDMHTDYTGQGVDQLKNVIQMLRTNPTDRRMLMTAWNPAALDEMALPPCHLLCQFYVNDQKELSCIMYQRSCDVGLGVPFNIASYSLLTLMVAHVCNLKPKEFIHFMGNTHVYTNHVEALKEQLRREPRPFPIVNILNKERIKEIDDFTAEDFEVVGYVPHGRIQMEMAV

The target of assay [4] is T2, Dihydrofolate reductase (Homo sapiens, UniProt P00374).
T2 sequence (P00374 whole entry): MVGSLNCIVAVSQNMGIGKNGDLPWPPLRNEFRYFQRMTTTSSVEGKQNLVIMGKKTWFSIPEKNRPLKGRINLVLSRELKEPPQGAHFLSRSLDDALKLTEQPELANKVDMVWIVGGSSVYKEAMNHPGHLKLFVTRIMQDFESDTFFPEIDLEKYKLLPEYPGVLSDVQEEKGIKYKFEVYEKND

The target in assay [5] is T1, Bifunctional dihydrofolate reductase-thymidylate synthase. The source holds these as a separate data set.
Assay [6] has as its system CCRF-CEM. Briefly: cells. As to conditions: Homo sapiens.
For assay [7], the system named is HL-60(TB). Briefly: cells. To be noted: Homo sapiens.
Assay [8] deals with MOLT-4. The experiment in a line: cells. To be noted: Homo sapiens.
Assay [9] has as its system NCI-H460. Briefly: cells. To be noted: Homo sapiens.
The nature of assay [10]: cells. To be noted: Homo sapiens, NCI-H525.
Assay [11] relates to NCI-H23. Briefly: cells. To be noted: Homo sapiens.
Assay [12] concerns HCC 2998. Briefly: cells. As to conditions: Homo sapiens.
In assay [13] the test system is HCT-116. Briefly: cells. To be noted: Homo sapiens.
Assay [14] deals with LOX IMVI. Briefly: cells. As to conditions: Homo sapiens.
The test system of assay [15] is M14. Briefly: cells. To be noted: Homo sapiens.
In assay [16] the test system is OVCAR-8. Briefly: cells. To be noted: Homo sapiens.
The nature of assay [17]: cells. As to conditions: Homo sapiens, 786-0.
In assay [18] the test system is SN12C. Briefly: cells. To be noted: Homo sapiens.
Assay [19] addresses T3, Dihydrofolate reductase (Escherichia coli) (UniProt P0ABQ4).
T3 sequence (whole entry): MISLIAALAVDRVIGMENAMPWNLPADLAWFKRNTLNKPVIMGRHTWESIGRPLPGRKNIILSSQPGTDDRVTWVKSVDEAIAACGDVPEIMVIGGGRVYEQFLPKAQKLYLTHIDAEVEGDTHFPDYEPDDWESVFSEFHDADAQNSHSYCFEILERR
Briefly: Inhibition of Escherichia coli dihydrofolate reductase at 27 uM.

The target in assay [20] is Thymidylate synthase (Escherichia coli) (UniProt C3SWJ7). Briefly: Inhibition of Escherichia coli thymidylate synthase at 23 uM.
Thymidylate synthase (Escherichia coli), sequence (C3SWJ7 1-264): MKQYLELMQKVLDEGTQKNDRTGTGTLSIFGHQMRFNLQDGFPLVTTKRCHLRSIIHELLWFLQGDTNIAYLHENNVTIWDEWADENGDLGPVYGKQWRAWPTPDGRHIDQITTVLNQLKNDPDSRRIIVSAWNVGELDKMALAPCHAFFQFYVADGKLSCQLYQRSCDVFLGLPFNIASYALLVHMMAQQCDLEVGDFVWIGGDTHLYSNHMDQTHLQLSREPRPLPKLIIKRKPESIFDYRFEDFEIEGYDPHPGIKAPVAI
Assay [21] has as its target T3, Dihydrofolate reductase (Escherichia coli). Briefly: Inhibition of Escherichia coli dihydrofolate reductase at 28 uM.
The target in assay [22] is T4, Bifunctional dihydrofolate reductase-thymidylate synthase (Toxoplasma gondii) (UniProt Q07422).
T4 sequence (whole entry): T1 sequence (Q07422 whole entry)
As to conditions: 23 uM.

In assay [23] the target is T3, Dihydrofolate reductase (Escherichia coli). The experiment in a line: Inhibition of Escherichia coli dihydrofolate reductase at […].
Assay [24] has the same target. Briefly: Inhibition of Escherichia coli dihydrofolate reductase at 3 uM.
Assay [25] has the same target. Briefly: Inhibition of Escherichia coli dihydrofolate reductase at 31 uM.

Thymidylate synthase (Homo sapiens, UniProt P04818), sequence (P04818 whole entry): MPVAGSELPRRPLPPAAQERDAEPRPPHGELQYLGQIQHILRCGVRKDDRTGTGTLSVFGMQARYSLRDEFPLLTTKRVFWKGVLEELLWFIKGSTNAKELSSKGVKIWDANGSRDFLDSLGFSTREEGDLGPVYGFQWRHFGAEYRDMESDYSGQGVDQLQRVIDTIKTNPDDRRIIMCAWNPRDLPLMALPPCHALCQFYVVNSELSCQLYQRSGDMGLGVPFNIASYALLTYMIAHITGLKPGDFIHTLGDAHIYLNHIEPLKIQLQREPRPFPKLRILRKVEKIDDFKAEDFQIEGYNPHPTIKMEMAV
Thymidylate synthase (Escherichia coli, UniProt C3SWJ7), sequence (C3SWJ7 whole entry): as the sequence (C3SWJ7 1-264) above

In the case of `CCc1sc2nc(N)[nH]c(=O)c2c1Sc1ccc(C(=O)N[C@@H](CCC(=O)O)C(=O)O)cc1`, the IC50 in [1] came to 0.054 µM; in assay [2], 0.018 µM; in assay [3] it was 0.09 µM; in assay [4], 0.019 µM; in assay [5], 0.0021 µM. Also, the GI50 worked out at 0.853 µM in assay [6]; 0.497 µM in assay [7]; 4.78 µM in assay [8]; 0.959 µM in assay [9]; 7.8 µM in [10]; 9.4 µM in assay [11]. Also, the concentration for 50% growth inhibition (GI50) turned out to be 0.965 µM in assay [12]; 0.284 µM in assay [13]; 0.0909 µM in assay [14]; 4.32 µM in [15]; 0.579 µM in assay [16]; 0.817 µM in assay [17]. This compound returned a GI50 in assay [18] of 3.31 µM.

On to `CCc1sc2nc(N)[nH]c(=O)c2c1Sc1ccc(Cl)c(Cl)c1`, for which the concentration for half-maximal inhibition (IC50) in assay [1] is 0.23 µM; in [2], 2.3 µM; in assay [3], 1 µM; in assay [4], 0.29 µM; in assay [5], 0.0081 µM.

As for `CCc1sc2nc(N)[nH]c(=O)c2c1Sc1ccncc1`, the 50% inhibitory concentration (IC50) in assay [2] came out at 2 µM; in assay [3] it was 1.7 µM; in [4], 0.35 µM; in assay [5], 0.017 µM.

In the case of `Cc1sc2nc(N)[nH]c(=O)c2c1Sc1ccc(C(=O)N[C@@H](CCC(=O)O)C(=O)O)cc1`, the GI50 is 94.5 µM in assay [6]; greater than 100 µM in assay [8]; 41.2 µM in assay [9]; greater than 100 µM in [10]; greater than 100 µM in assay [11]; greater than 100 µM in [12]. The 50% growth inhibitory concentration (GI50) in [13] was greater than 100 µM; in [14], 65.6 µM; in [15], greater than 100 µM; in assay [16], greater than 100 µM; in assay [17], greater than 100 µM; in assay [18], greater than 100 µM.

For the compound `CCc1sc2nc(N)[nH]c(=O)c2c1Sc1ccccc1`, the IC50 came out at 5.6 µM in assay [1]; 28 µM in [2]; 8.4 µM in [3]; 2.6 µM in [4]; 0.033 µM in [5].

Take `CCc1sc2nc(N)[nH]c(=O)c2c1Sc1ccc(Cl)cc1`: the half-inhibitory concentration (IC50) turned out to be 0.75 µM in assay [1], 2.5 µM in assay [2] and 0.3 µM in assay [4].

For the compound `CCc1sc2nc(N)[nH]c(=O)c2c1Sc1ccc([N+](=O)[O-])cc1`, the half-inhibitory concentration (IC50) in [1] was determined as 0.22 µM; in [2], 1.7 µM; in assay [3] it was 1 µM; in assay [4], 0.26 µM; in [5] it was 0.0087 µM.

Take `CCc1sc2nc(N)[nH]c(=O)c2c1Sc1ccc2ccccc2c1`: the concentration for half-maximal inhibition (IC50) in assay [1] came out at 2.3 µM; in [2], 1.4 µM; in [3], 1.1 µM; in assay [4], 2.2 µM; in assay [5] it was 0.0084 µM.

Regarding `CCc1sc2nc(N)[nH]c(=O)c2c1Sc1cc(OC)cc(OC)c1`, the inhibition in assay [19] turned out to be 0%. The IC50 in [1] turned out to be 1.2 µM; in assay [2], 1.8 µM; in assay [3] it was 2.3 µM; in assay [4] it was 0.54 µM; in assay [5], 0.024 µM.

In the case of `CCc1sc2nc(N)[nH]c(=O)c2c1Sc1cc(OC)ccc1OC`, the inhibition came out at 11% in assay [20], 0% in assay [21] and 29% in assay [22]. The IC50 in [1] is 4.6 µM; in assay [2] it was greater than 23 µM; in assay [4] it was 0.84 µM; in [5], 0.014 µM.

In the case of `CCc1sc2nc(N)[nH]c(=O)c2c1Sc1cc(Cl)cc(Cl)c1`, the inhibition in assay [23] was 0%. The IC50 in assay [1] is 0.69 µM; in assay [2], 1.2 µM; in assay [3], 1.6 µM; in assay [4] it was 0.28 µM; in [5] it was 0.014 µM.

As to `CCc1sc2nc(N)[nH]c(=O)c2c1Sc1cccc(Cl)c1`, the inhibition in [24] is 0%. The IC50 came out at 0.38 µM in assay [1]; 2.3 µM in assay [2]; 1.8 µM in assay [3]; 0.3 µM in [4]; 0.012 µM in assay [5].

As for `CCc1sc2nc(N)[nH]c(=O)c2c1Sc1ccc(Br)cc1`, the IC50 in [1] was determined as 0.39 µM; in assay [2] it was 2.2 µM; in assay [3], 2.2 µM; in assay [4], 0.26 µM; in assay [5], 0.013 µM.

As for `CCc1sc2nc(N)[nH]c(=O)c2c1Sc1ccccc1Cl`, the IC50 came out at 1.1 µM in assay [1]; 2 µM in assay [2]; 2.5 µM in [3]; 0.6 µM in assay [4]; 0.027 µM in assay [5].

`CCc1sc2nc(N)[nH]c(=O)c2c1Sc1ccc(F)cc1` came in with an inhibition in assay [25] of 15%. For the same compound, the IC50 was determined as 1.3 µM in assay [1]; 2.9 µM in assay [2]; 2.6 µM in [3]; 0.62 µM in assay [4]; 0.025 µM in [5].

(Values after ChEMBL document CHEMBL1151945 (J Med Chem, 2009).)
